Assay results: ChEMBL document CHEMBL3988442, “University of Dundee, Small-Polar-MMV Screening Library” (2021)

Legend:
[1] = microbe, parasite or virus in culture; conditions: Mycobacterium tuberculosis, 96 h, read-out: pIC50 (converted)
[2] = microbe, parasite or virus in culture; conditions: Mycobacterium tuberculosis, 72 h, read-out: pIC50 (converted)

## CCCOc1cc(CNC(=O)c2nccn2C)ccn1
[1]
  IC50: 201 µM
[2]
  IC50: 248 µM

## N#Cc1ccccc1N1CCCC(N)C1 (centres undefined)
[1]
  IC50: 142 µM
[2]
  IC50: 79.7 µM

## COc1ccc(CSCC(N)=O)cc1Br
[1]
  IC50: 262 µM
[2]
  IC50: 241 µM

## FC(F)Sc1ccc(NCc2nnc(C3CC3)o2)cc1
[1]
  IC50: 46.7 µM
[2]
  IC50: 11.8 µM

## CC(c1ccccc1)N(C)C(=O)CN1CCCc2cccc(F)c21 (centres undefined)
[1]
  IC50: > 50.1 µM
[2]
  IC50: 31.2 µM

## Cc1ccc2[nH]c(C(=O)N3CCN(C)CC3)cc2c1
[1]
  IC50: 316 µM
[2]
  IC50: 384 µM

## COc1cc(CCC(=O)N2CCC(c3cc4nccnc4[nH]3)CC2)on1
[1]
  IC50: > 50.1 µM
[2]
  IC50: 30.7 µM

## CC(=O)NCC1CNCCO1 (centres undefined)
[1]
  IC50: > 501 µM
[2]
  IC50: > 501 µM

## NC[C@]12C[C@H]1CCN2Cc1ccccc1
[1]
  IC50: 184 µM
[2]
  IC50: > 501 µM

## Nc1cc(N2CCCC(CO)(Cc3ccccc3F)C2)nc(N)n1 (centres undefined)
[1]
  IC50: 45.3 µM
[2]
  IC50: 47.1 µM

## CCOCCC(=O)N(C)Cc1cc(C(C)C)no1
[1]
  IC50: 372 µM
[2]
  IC50: 169 µM

## CCc1cc(N(C)Cc2ccncn2)n2nc(C)c(C)c2n1
[1]
  IC50: 14.2 µM
[2]
  IC50: 33.8 µM

## Cc1cc(NC2CCC(=O)N(C)C2)n2nccc2n1 (centres undefined)
[1]
  IC50: > 50.1 µM
[2]
  IC50: > 50.1 µM

## COc1ccccc1OCC(C)CN (centres undefined)
[1]
  IC50: 123 µM
[2]
  IC50: 82.9 µM

## c1snnc1CNCC1COC2(CCCCC2)O1 (centres undefined)
[1]
  IC50: 268 µM
[2]
  IC50: > 501 µM

## CC(Oc1ccc(Cl)cc1)C(=O)N(C)C (centres undefined)
[1]
  IC50: > 501 µM
[2]
  IC50: > 501 µM

## CN(CCOc1ccc(Cl)cc1)S(C)(=O)=O
[1]
  IC50: 178 µM
[2]
  IC50: 142 µM

## CCc1c(C)n(CCC#N)c2nc3ccccc3n2c1=O
[1]
  IC50: > 50.1 µM
[2]
  IC50: > 50.1 µM

## CC(C)C1CN(C(=O)CCc2ccccn2)CCS1 (centres undefined)
[1]
  IC50: 95.5 µM
[2]
  IC50: 79.8 µM

## O=C(CNCC1CC1)Nc1ccccc1
[1]
  IC50: > 501 µM
[2]
  IC50: 171 µM

## Cc1ccc(-c2nc(CNC(C)Cn3cccn3)cs2)o1 (centres undefined)
[1]
  IC50: > 50.1 µM
[2]
  IC50: > 50.1 µM

## CC(C)Oc1cccc(CN(C)C(=O)Cc2ccon2)c1
[1]
  IC50: > 50.1 µM
[2]
  IC50: > 50.1 µM

## Cc1nc(CCN)cc(NC2CCC2)n1
[1]
  IC50: > 501 µM
[2]
  IC50: 145 µM

## Cc1ccc(C)c(-n2cc(CN3CC[C@@H](O)C3)c(-c3ccccc3)n2)c1
[1]
  IC50: > 50.1 µM
[2]
  IC50: 27.1 µM

## O=C(Cc1ccc2c(c1)CCCC2)Nc1cccnc1N1CCSCC1
[1]
  IC50: 9.97 µM
[2]
  IC50: 12 µM

## Cn1cc(CNC(=O)C2CSc3ccccc3O2)cn1 (centres undefined)
[1]
  IC50: > 501 µM
[2]
  IC50: 218 µM

## CCOc1ccc2c(c1)C=C(C(=O)NC)CO2
[1]
  IC50: 230 µM
[2]
  IC50: 174 µM

## COC(=O)CSc1nc(N)c2ccsc2n1
[1]
  IC50: > 501 µM
[2]
  IC50: 250 µM

## CCC(C)NC(=O)c1cc(F)cc(F)c1 (centres undefined)
[1]
  IC50: 229 µM
[2]
  IC50: 130 µM

## NC(=O)c1ccsc1NC(=O)CCN1CCCCC1
[1]
  IC50: > 501 µM
[2]
  IC50: 495 µM

## CCCc1nc(N2CC[C@@H](c3ccc4c(c3)OCO4)[C@H](O)C2)no1
[1]
  IC50: > 50.1 µM
[2]
  IC50: 44.3 µM

## CCNC1=NN=C(c2ccc(OC)c(F)c2)CS1
[1]
  IC50: 134 µM
[2]
  IC50: 137 µM

## O=C(NCCc1c[nH]c2ccc(F)cc12)C1(n2cnnn2)CCCCC1
[1]
  IC50: 28 µM
[2]
  IC50: 46.3 µM

## O=C(Nc1ccc(Cl)cn1)c1ccncc1
[1]
  IC50: > 501 µM
[2]
  IC50: 304 µM

## COCc1nn(CCC2CCCC2)c(=O)o1
[1]
  IC50: 86.6 µM
[2]
  IC50: 68.2 µM

## CS(=O)(=O)NCC1CCCN(C(=O)Nc2ccccc2Cl)C1 (centres undefined)
[1]
  IC50: > 50.1 µM
[2]
  IC50: > 50.1 µM

## COc1ccc(CCN)c(Cl)c1OC
[1]
  IC50: > 501 µM
[2]
  IC50: 265 µM

## CNC(=O)C(C)Sc1nnnn1-c1ccccc1C (centres undefined)
[1]
  IC50: 213 µM
[2]
  IC50: 210 µM

## CC(C)CC(O)C(=O)NCc1cc2ccccc2[nH]1 (centres undefined)
[1]
  IC50: > 501 µM
[2]
  IC50: > 501 µM

## C=C(C)CN1CCN(c2ccccn2)CC1
[1]
  IC50: > 501 µM
[2]
  IC50: > 501 µM

## COc1cccc(SCC(=O)N2CCOC(C)C2)c1 (centres undefined)
[1]
  IC50: > 501 µM
[2]
  IC50: > 501 µM

## c1csc(CCNc2nc(-c3ccncc3)nc3c2CCNCC3)c1
[1]
  IC50: 21.7 µM
[2]
  IC50: 46.2 µM

## CC(=O)c1cccc(COC(=O)c2cccnc2)c1
[1]
  IC50: 269 µM
[2]
  IC50: 231 µM

## CCOc1ccc(CNC(=O)CCn2cccn2)cc1
[1]
  IC50: > 501 µM
[2]
  IC50: 148 µM

## COc1cccc(CCC2CCCN(C(=O)c3ccc(OC)o3)C2)c1 (centres undefined)
[1]
  IC50: 23 µM
[2]
  IC50: 27.7 µM

## O=C(COC(=O)c1cccs1)c1ccc[nH]1
[1]
  IC50: 211 µM
[2]
  IC50: 429 µM

## COc1cccc(C2=NN=C(NC3CC3)SC2)c1
[1]
  IC50: 111 µM
[2]
  IC50: 97.4 µM

## CCN1CC(c2nc3ccccc3[nH]2)CC1=O (centres undefined)
[1]
  IC50: 260 µM
[2]
  IC50: 250 µM

## CN(Cc1cccc(C#N)c1)C(=O)C1CC1
[1]
  IC50: 133 µM
[2]
  IC50: > 501 µM

## CN(Cc1nnc(C2CC2)o1)Cc1ccccc1-c1ccccc1
[1]
  IC50: > 50.1 µM
[2]
  IC50: 24.7 µM

## Cc1[nH]c2ccc(C(N)=O)cc2c1C
[1]
  IC50: 41.9 µM
[2]
  IC50: 20.8 µM

## CCc1ccc(CN2CCN(C(=O)N(C)C)CC2)o1
[1]
  IC50: > 501 µM
[2]
  IC50: 206 µM

## COc1cccc(S(=O)(=O)CCN2CCC(O)CC2)c1
[1]
  IC50: > 501 µM
[2]
  IC50: 397 µM

## Nc1nnc(SCc2ccccc2F)s1
[1]
  IC50: 157 µM
[2]
  IC50: 248 µM

## O=C(Cn1ccc(C(F)(F)F)n1)Nc1ccccn1
[1]
  IC50: > 501 µM
[2]
  IC50: 224 µM

## O=C(NCCNC(=O)C1CCCC1)c1ccccc1O
[1]
  IC50: 402 µM
[2]
  IC50: 229 µM

## CNS(=O)(=O)c1ccc(C(=O)NCc2ccccc2)o1
[1]
  IC50: > 501 µM
[2]
  IC50: 151 µM

## COc1ccc(NS(=O)(=O)N(C)C)c(Br)c1
[1]
  IC50: > 501 µM
[2]
  IC50: > 501 µM

## CC(NS(=O)(=O)N(C)C1CCCCC1)c1ccccn1 (centres undefined)
[1]
  IC50: 159 µM
[2]
  IC50: 75.6 µM

## CCN(C)S(=O)(=O)N(CC)CC(O)c1ccc(C)cc1 (centres undefined)
[1]
  IC50: 293 µM
[2]
  IC50: 334 µM

## CN(Cc1ccc(O)cc1)C(=O)c1cc(Cl)c[nH]1
[1]
  IC50: 187 µM
[2]
  IC50: 173 µM

## NCc1cnn(-c2cccc(Cl)c2)c1
[1]
  IC50: 260 µM
[2]
  IC50: 258 µM

## CCN1CCC(CNCc2c[nH]nc2C(C)(C)C)C1 (centres undefined)
[1]
  IC50: 16.4 µM
[2]
  IC50: > 50.1 µM

## CC(C(=O)Nc1ccc(Br)cc1)n1cnnn1 (centres undefined)
[1]
  IC50: 199 µM
[2]
  IC50: 393 µM

## C=C(Br)Cn1c(CO)nc2ccccc21
[1]
  IC50: > 501 µM
[2]
  IC50: > 501 µM

## NC1CCCN(Cc2ccccc2)C1 (centres undefined)
[1]
  IC50: > 501 µM
[2]
  IC50: 262 µM

## Cn1nnnc1SCCOc1cccc(F)c1
[1]
  IC50: 87.9 µM
[2]
  IC50: 412 µM

## O=C(NCC(O)c1ccc(Cl)cc1)Nc1ccccn1 (centres undefined)
[1]
  IC50: > 501 µM
[2]
  IC50: 106 µM

## CCC(CO)Nc1ncc(C(F)(F)F)cc1Cl (centres undefined)
[1]
  IC50: > 501 µM
[2]
  IC50: > 501 µM

## Cc1csc(NC(=O)NC(CO)CC(C)C)n1 (centres undefined)
[1]
  IC50: 289 µM
[2]
  IC50: 341 µM

## Cc1ccc(C(=O)NCCNS(=O)(=O)C(C)C)cc1F
[1]
  IC50: > 501 µM
[2]
  IC50: 155 µM

## CC1(NC(=O)CC2CCc3ccccc32)CCOCC1 (centres undefined)
[1]
  IC50: > 50.1 µM
[2]
  IC50: > 50.1 µM

## FC(F)(F)c1ccnc(N2CCC(c3nccn3CC3CC3)CC2)n1
[1]
  IC50: 16.3 µM
[2]
  IC50: 44.6 µM

## CNC(=O)C1CN(C(=O)c2cccs2)CCN(S(C)(=O)=O)C1 (centres undefined)
[1]
  IC50: > 50.1 µM
[2]
  IC50: > 50.1 µM

## CCN(CCO)Cc1cc(-c2cccs2)on1
[1]
  IC50: > 501 µM
[2]
  IC50: 145 µM

## Cc1ccc(N(CC(=O)c2ccc(Br)cc2)C2=NCCCCC2)cc1
[1]
  IC50: 23.1 µM
[2]
  IC50: 11.1 µM

## O=C(COCC(F)(F)F)NCc1cn2ccccc2n1
[1]
  IC50: > 501 µM
[2]
  IC50: 92.3 µM
